What was measured:
[1] = target: T1, CDK2/cyclin A (Homo sapiens, UniProt P24941); assay: Inhibition of CDK2/cyclin A retinoblastoma kinase activity (Ki; % inhibition); type: biochemical; conditions: for Ki: apparent Ki, CDK2/cyclin A, Rb substrate
T1 construct: made in house; host or cells: CDK2: insect cells (baculovirus); cyclin A: E. coli
In short: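 Radiometric filter assay of CDK2/proteolyzed cyclin A (baculovirus-expressed human CDK2, 10 or 19 nM) phosphorylating an Rb fragment with 25 μM [³²P/³³P]ATP in pH 7.4 HEPES, 2% DMSO, at 30 °C for 60 or 75 min under initial-rate conditions. Library compounds screened at 30 nM for % inhibition; apparent Ki from concentration series fit to competitive or tight-binding inhibition equations.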

[2] = target: T2, human CDK4/cyclin D3 (Homo sapiens, UniProt P11802); assay: Inhibition of CDK4/cyclin D retinoblastoma kinase activity (Ki; % inhibition); type: biochemical; conditions: for Ki: apparent Ki, CDK4/cyclin D3, Rb substrate
T2 construct: made in house; host or cells: insect cells co-infected with baculovirus vectors
In short: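 Insect-cell-expressed CDK4 with truncated cyclin D3 (1-264), 5 nM, phosphorylating His-tagged Rb fragment (386-928) with 25 μM [32/33P]ATP at pH 7.4, 30 °C, 20 min (60 min for tight binders). Filter capture, phosphorimager read; % inhibition at 30 nM compound, Ki from competitive or tight-binding fits.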

[3] = tested on: HCT-116 cell line; assay: Inhibition of cell growth, MTT tetrazolium salt assay; type: cell-based; conditions: for IC50: Homo sapiens, HCT-116, 120 h, MTT, three to five days
In short: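 HCT-116 cells in McCoy's 5A were dosed 4 h after plating with compounds in 0.5% DMSO and grown 3–5 days at 37 °C. Then 0.2 mg/mL MTT was added for 4 h and formazan absorbance read at 540 nm. IC50/IC90 came from semi-log plots against DMSO-only controls.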

[4] = HCT-116 cells, 0.25 μM compound

T2 sequence (P11802 whole entry): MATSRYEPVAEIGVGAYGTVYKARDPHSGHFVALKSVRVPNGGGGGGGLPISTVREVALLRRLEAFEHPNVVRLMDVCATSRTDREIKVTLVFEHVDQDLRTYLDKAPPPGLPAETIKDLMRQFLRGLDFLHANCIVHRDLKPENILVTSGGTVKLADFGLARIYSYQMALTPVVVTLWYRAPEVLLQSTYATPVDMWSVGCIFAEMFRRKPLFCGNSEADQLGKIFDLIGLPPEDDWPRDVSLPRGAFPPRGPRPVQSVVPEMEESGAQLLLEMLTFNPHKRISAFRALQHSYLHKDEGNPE
T2 sequence (P30281 1-264 partner limits assumed): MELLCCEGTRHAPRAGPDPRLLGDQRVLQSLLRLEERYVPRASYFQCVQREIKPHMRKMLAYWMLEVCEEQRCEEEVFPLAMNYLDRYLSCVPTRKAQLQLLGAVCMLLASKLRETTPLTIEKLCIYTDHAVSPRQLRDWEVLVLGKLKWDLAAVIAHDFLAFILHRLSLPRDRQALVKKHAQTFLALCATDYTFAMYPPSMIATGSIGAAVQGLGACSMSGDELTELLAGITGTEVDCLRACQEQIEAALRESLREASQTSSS

Row | CDK2 % Inhibition at 0.03 μM ([1]; 0.03 μM compound) [%] | CDK4 % Inhibition at 0.03 μM ([2]; 0.03 μM compound) [%] | CDK2 % Inhibition at 0.03 μM ([1]; at 0.03 μM) [%] | CDK4 % Inhibition at 0.03 μM ([2]; at 0.03 μM) [%] | SMILES | HCT-116 % Inhibition at 0.1 μM ([3]; HCT-116 cells, 0.1 μM compound) [%] | HCT-116 % Inhibition at 0.25 μM [3, 4] [%] | HCT-116 % Inhibition at 0.1 μM ([3]; HCT-116, at 0.1 μM) [%] | HCT-116 % Inhibition at 0.25 μM ([3]; HCT-116, at 0.25 μM) [%] | also measured
1 | 27 | 19 |  |  | Cc1ccc(CNC(=O)c2ccc(Nc3nc(N)c(C(=O)c4c(F)cccc4F)s3)cc2)cc1Cl [Example G275] | 25 | 63 |  |  | 
2 | 11 | 27 |  |  | COc1ccc(N2CCN(C(=O)c3ccc(Nc4nc(N)c(C(=O)c5c(F)cccc5F)s4)cc3)CC2)cc1 [Example G240] | 15 | 52 |  |  | 
3 |  |  | 23 | 36 | CN(C)CCNC(=O)c1ccc(Nc2nc(N)c(C(=O)c3c(F)cccc3F)s2)cc1 [Example G149] |  |  | 10 | 82 | 
4 |  |  | 8 | 23 | CNC(=O)C(C)NC(=O)c1ccc(Nc2nc(N)c(C(=O)c3c(F)cccc3F)s2)cc1 (stereo not drawn) [Example G192] |  |  | 13 | 49 | 
5 | 36 | 34 |  |  | Cc1ccc([C@H](C)NC(=O)c2ccc(Nc3nc(N)c(C(=O)c4c(F)cccc4F)s3)cc2)cc1 [Example G245] | 18 | 55 |  |  | 
6 |  |  | 26 | 32 | COc1ccccc1CNC(=O)c1ccc(Nc2nc(N)c(C(=O)c3c(F)cccc3F)s2)cc1 [Example G170] |  |  | 44 | 78 | 
7 |  |  | 5 | 8 | CCN(CC)CCN(CC)C(=O)c1ccc(Nc2nc(N)c(C(=O)c3c(F)cccc3F)s2)cc1 [Example G35] |  |  |  | 53 | 
8 | −7 | −5 |  |  | Nc1nc(Nc2ccc(C(=O)N[C@H](CO)CC3CCCCC3)cc2)sc1C(=O)c1c(F)cccc1F [Example G359] | 25 | 69 |  |  | 
9 |  |  | 13 | 20 | Nc1nc(Nc2ccc(C(=O)NC3CCSC3=O)cc2)sc1C(=O)c1c(F)cccc1F (stereo not drawn) [Example G121] |  |  | 0 | 55 | 
10 |  |  |  |  | CN1C[C@H](O)C[C@H]1CNC(=O)c1ccc(Nc2nc(N)c(C(=O)c3c(F)cccc3F)s2)cc1 [Example A54, 4-{4-Amino-5-(2,6-difluoro-benzoyl)-thiazol-2-ylamino]-N-(4R-hydroxy-1-methyl-pyrrolidin-2S-yl-methyl)-benzamide] |  |  |  |  | Ki [1]: 52 nM; Ki [2]: 9 nM; IC50 [3]: 600 nM
11 | −33 | −2 |  |  | CC1CC(C)CN(C(=O)c2ccc(Nc3nc(N)c(C(=O)c4c(F)cccc4F)s3)cc2)C1 (stereo not drawn) [Example G273] | 17 | 45 |  |  | 
12 | 35 | 27 |  |  | Cc1ccccc1CNC(=O)c1ccc(Nc2nc(N)c(C(=O)c3c(F)cccc3F)s2)cc1 [Example G244] | 30 | 67 |  |  | 
13 |  |  | 8 | 9 | COc1ccc(NC(=O)c2ccc(Nc3nc(N)c(C(=O)c4c(F)cccc4F)s3)cc2)cc1 [Example G54] |  |  |  | 86 | 
14 |  |  | 5 | 4 | CCOC(=O)c1ccc(NC(=O)c2ccc(Nc3nc(N)c(C(=O)c4c(F)cccc4F)s3)cc2)cc1 [Example G190] |  |  | 9 | 55 | 
15 | 4 | 9 |  |  | Nc1nc(Nc2ccc(C(=O)NC[C@@H]3CCCC[C@H]3O)cc2)sc1C(=O)c1c(F)cccc1F (relative stereo) [Example G350] | 24 | 41 |  |  | 
16 |  |  | 10 | 18 | CC(=O)c1cccc(NC(=O)c2ccc(Nc3nc(N)c(C(=O)c4c(F)cccc4F)s3)cc2)c1 [Example G189] |  |  | 13 | 56 | 
17 | 1 | −7 |  |  | Nc1nc(Nc2ccc(C(=O)NCC(O)c3ccccc3)cc2)sc1C(=O)c1c(F)cccc1F (stereo not drawn) [Example G391] | 11 | 50 |  |  | 

Row | CDK2 % Inhibition at 0.03 μM ([1]; 0.03 μM compound) [%] | CDK4 % Inhibition at 0.03 μM ([2]; 0.03 μM compound) [%] | CDK2 % Inhibition at 0.03 μM ([1]; at 0.03 μM) [%] | CDK4 % Inhibition at 0.03 μM ([2]; at 0.03 μM) [%] | SMILES | HCT-116 % Inhibition at 0.1 μM ([3]; HCT-116 cells, 0.1 μM compound) [%] | HCT-116 % Inhibition at 0.25 μM [3, 4] [%] | HCT-116 % Inhibition at 0.1 μM ([3]; HCT-116, at 0.1 μM) [%] | HCT-116 % Inhibition at 0.25 μM ([3]; HCT-116, at 0.25 μM) [%] | also measured
18 | 15 | −10 |  |  | Nc1nc(Nc2ccc(C(=O)NC(CO)CSCc3ccccc3)cc2)sc1C(=O)c1c(F)cccc1F (stereo not drawn) [Example G383] | 33 | 51 |  |  | 
19 |  |  |  |  | CN(C)C1(CNC(=O)c2ccc(Nc3nc(N)c(C(=O)c4c(F)cccc4F)s3)cc2)CCCC1 [Example A77, 4-{[4-Amino-5-(2,6-difluorobenzoyl)-1,3-thiazol-2-yl]amino}-N-{[1-(dimethylamino)cyclopentyl]methyl}benzamide] |  |  |  |  | Ki [1]: 84 nM; Ki [2]: 5.2 nM; IC50 [3]: 120 nM
20 | −8 | 7 |  |  | Nc1nc(Nc2ccc(C(=O)Nc3cccc(Br)c3)cc2)sc1C(=O)c1c(F)cccc1F [Example G287] | 9 | 32 |  |  | 
21 |  |  | 12 | 18 | Nc1nc(Nc2ccc(C(=O)NC3CCc4ccccc43)cc2)sc1C(=O)c1c(F)cccc1F (stereo not drawn) [Example G95] |  |  | 32 | 63 | 
22 | −6 | 9 |  |  | Nc1nc(Nc2ccc(C(=O)Nc3cccc(F)c3)cc2)sc1C(=O)c1c(F)cccc1F [Example G289] | 7 | 62 |  |  | 
23 |  |  | 6 | 16 | Nc1nc(Nc2ccc(C(=O)NC3CCCC3)cc2)sc1C(=O)c1c(F)cccc1F [Example G131] |  |  | 0 | 58 | 
24 | −2 | 8 |  |  | Nc1nc(Nc2ccc(C(=O)NCCCO)cc2)sc1C(=O)c1c(F)cccc1F [Example G334] | 6 | 41 |  |  | 
25 |  |  | 10 | 34 | CCN1CCCC1CNC(=O)c1ccc(Nc2nc(N)c(C(=O)c3c(F)cccc3F)s2)cc1 (stereo not drawn) [Example G154] |  |  | 17 | 91 | 
26 |  |  |  |  | Nc1nc(Nc2ccc(C(=O)NC3CCN(Cc4ccccc4)C3)cc2)sc1C(=O)c1c(F)cccc1F (stereo not drawn) [Example G381] |  |  |  |  | CDK2 % Inhibition at 0.03 μM ([1]; 0.03 μM compound, 0.03 µM): 5%; CDK4 % Inhibition at 0.03 μM ([2]; 0.03 μM compound, 0.03 µM): 38%; HCT-116 % Inhibition at 0.1 μM ([3]; HCT-116 cells, 0.1 μM compound, 0.1 µM): 43%; HCT-116 % Inhibition at 0.25 μM ([3]; HCT-116 cells, 0.25 μM compound, 0.25 µM): 88%
27 |  |  | −2 | 6 | C=C(C)CN(C)C(=O)c1ccc(Nc2nc(N)c(C(=O)c3c(F)cccc3F)s2)cc1 [Example G182] |  |  | 23 | 52 | 
28 |  |  | 1 | 3 | Nc1nc(Nc2ccc(C(=O)N3CCCC(CO)C3)cc2)sc1C(=O)c1c(F)cccc1F (stereo not drawn) [Example G48] |  |  |  | 50 | 
29 |  |  | −3 | 11 | CCOC(=O)/C=C/c1ccc(NC(=O)c2ccc(Nc3nc(N)c(C(=O)c4c(F)cccc4F)s3)cc2)cc1 [Example G114] |  |  | 0 | 48 | 
30 |  |  | 15 | 17 | CC(O)CNC(=O)c1ccc(Nc2nc(N)c(C(=O)c3c(F)cccc3F)s2)cc1 (stereo not drawn) [Example G110] |  |  | 0 | 52 | 
31 |  |  | 12 | 17 | CC(=O)N1CCN(C(=O)c2ccc(Nc3nc(N)c(C(=O)c4c(F)cccc4F)s3)cc2)CC1 [Example G65] |  |  |  | 58 | 
32 | 25 | 27 |  |  | Nc1nc(Nc2ccc(C(=O)NCc3ccc(F)cc3Cl)cc2)sc1C(=O)c1c(F)cccc1F [Example G278] | 6 | 76 |  |  | 
33 |  |  | −9 | 8 | CN1CCN(C(=O)c2ccc(Nc3nc(N)c(C(=O)c4c(F)cccc4F)s3)cc2)CC1 [Example G2] |  |  |  | 51 | 
34 | 18 | 27 |  |  | COc1ccc(NC(=O)c2ccc(Nc3nc(N)c(C(=O)c4c(F)cccc4F)s3)cc2)cn1 [Example G215] | 22 | 73 |  |  | 

From patent US6720346B2, “Thiazole benzamide derivatives and pharmaceutical compositions for inhibiting cell proliferation” (Agouron Pharmaceuticals, Inc., priority 2001, dated 2004)
